Measured values from article PMC12198282, “Application of a high-density microelectrode array assay using a 3D human iPSC-derived brain microphysiological system model for in vitro neurotoxicity screening of environmental compounds” (Archives of Toxicology, 2025).
Where two headings read alike, the source gives them in different places.

What was measured:
[1] = system: human iPSC-derived 3D BrainSpheres; experiment: BrainSphere MEA assay (HD-MEA, 13-day exposure, concentration-response); assay type: cell-based; details: for EC (benchmark response 1.349 SD): 312 h; for AC50: Supplement 3 prints it also for curves with hit call 0; for hitc Mean.Spheroid.Burst.Duration: key: 1 (active); 0 (inactive); for hitc Mean.Spheroid.Burst.ISI: key: 1 (active); 0 (inactive); for hitc Mean.Spheroid.Burst.Peak.Firing.Rate: key: 1 (active); 0 (inactive); for hitc Mean.Spheroid.Firing.Rate: key: 1 (active); 0 (inactive); for hitc Mean.Spheroid.IBI: key: 1 (active); 0 (inactive); for hitc Mean.Spheroid.Nonburst.ISI: key: 1 (active); 0 (inactive); for hitc Mean.Spheroid.Spikes.per.Burst.per.Electrode: key: 1 (active); 0 (inactive); for hitc Mean.Spheroid.Spikes.per.Burst: key: 1 (active); 0 (inactive); for hitc Spheroid.Burst.Frequency: key: 1 (active); 0 (inactive); for hitc Spheroid.Spike.Amplitude.90th.Percentile: key: 1 (active); 0 (inactive)
In short: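 7-week-differentiated BrainSpheres were plated on laminin/poly-D-lysine-coated HD-MEA chips and given 2 days to attach. Neural activity was recorded from the same regions of interest through a 13-day exposure, from day 0 onward. Ten network and general activity endpoints were derived per BrainSphere, with ≥3 biological replicates.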

2D rat cortical cultures [2] = details: cited from earlier work; for AC50: rNFA mc5
2D rat cortical cultures [3] = details: cytotoxicity LDH, cited from earlier work
[4] = AUC over 13-day exposure, tcplfit2
[5] = tcplfit2 BMD at benchmark response (1.349*SD of baseline controls)
[6] = tcplfit2 output ACC, activity cutoff in Supplemental Table 1
Throughout, for hitc CCTE Shafer MEA dev active electrodes number: key: 1 (active); 0 (inactive).
Throughout, for hitc CCTE Shafer MEA dev burst duration mean: key: 1 (active); 0 (inactive).
Throughout, for hitc CCTE Shafer MEA dev burst rate: key: 1 (active); 0 (inactive).
Throughout, for hitc CCTE Shafer MEA dev bursting electrodes number: key: 1 (active); 0 (inactive).
Throughout, for hitc CCTE Shafer MEA dev correlation coefficient mean: key: 1 (active); 0 (inactive).
Throughout, for hitc CCTE Shafer MEA dev firing rate mean: key: 1 (active); 0 (inactive).
Throughout, for hitc CCTE Shafer MEA dev inter network spike interval mean: key: 1 (active); 0 (inactive).
Throughout, for hitc CCTE Shafer MEA dev interburst interval mean: key: 1 (active); 0 (inactive).
Throughout, for hitc CCTE Shafer MEA dev mutual information norm: key: 1 (active); 0 (inactive).
Throughout, for hitc CCTE Shafer MEA dev network spike duration std: key: 1 (active); 0 (inactive).
Throughout, for hitc CCTE Shafer MEA dev network spike number: key: 1 (active); 0 (inactive).
Throughout, for hitc CCTE Shafer MEA dev network spike peak: key: 1 (active); 0 (inactive).
Throughout, for hitc CCTE Shafer MEA dev per burst interspike interval: key: 1 (active); 0 (inactive).
Throughout, for hitc CCTE Shafer MEA dev per burst spike percent: key: 1 (active); 0 (inactive).
Throughout, for hitc CCTE Shafer MEA dev per network spike spike number mean: key: 1 (active); 0 (inactive).
Throughout, for hitc CCTE Shafer MEA dev per network spike spike percent: key: 1 (active); 0 (inactive).
Throughout, for hitc CCTE Shafer MEA dev spike duration mean: key: 1 (active); 0 (inactive).

## C/C(=C/C=C/[C@@H](C)C(=O)O)[C@H]1CN[C@H](C(=O)O)[C@H]1CC(=O)O [Domoic acid]
[1]; 5th percentile of AC50 values by chemical, above 0.5 = more potent in the rNFA
  Difference of minimum potency between BrainSphere MEA assay and rNFA: more than 0.5 log10 µM
[1]; [4]
  hitc Mean.Spheroid.Burst.Duration: 1
  hitc Mean.Spheroid.Burst.ISI: 1
  hitc Mean.Spheroid.Burst.Peak.Firing.Rate: 1
  hitc Mean.Spheroid.Firing.Rate: 1
  hitc Mean.Spheroid.IBI: 1
  hitc Mean.Spheroid.Nonburst.ISI: 1
  hitc Mean.Spheroid.Spikes.per.Burst: 1
  hitc Mean.Spheroid.Spikes.per.Burst.per.Electrode: 1
  hitc Spheroid.Burst.Frequency: 1
  hitc Spheroid.Spike.Amplitude.90th.Percentile: 0
[1]; Homo sapiens, read-out: BMD Mean.Spheroid.Burst.ISI
  EC (benchmark response 1.349 SD): 2.6 µM
[1]; Homo sapiens, read-out: BMD Mean.Spheroid.Nonburst.ISI
  EC (benchmark response 1.349 SD): 0.99 µM
[1]; Homo sapiens, read-out: Mean potency
  EC50: 3320 nM
[1]; Homo sapiens, read-out: Minimum potency
  EC50: 1300 nM
[1]; Homo sapiens, read-out: ac50 Mean.Spheroid.Burst.Duration, concentration at 50% maximal activity
  AC50: 3600 nM
[1]; Homo sapiens, read-out: ac50 Mean.Spheroid.Burst.ISI, concentration at 50% maximal activity
  AC50: 4400 nM
[1]; Homo sapiens, read-out: ac50 Mean.Spheroid.Burst.Peak.Firing.Rate, concentration at 50% maximal activity
  AC50: 3100 nM
[1]; Homo sapiens, read-out: ac50 Mean.Spheroid.Firing.Rate, concentration at 50% maximal activity
  AC50: 5400 nM
[1]; Homo sapiens, read-out: ac50 Mean.Spheroid.IBI, concentration at 50% maximal activity
  AC50: 3550 nM
[1]; Homo sapiens, read-out: ac50 Mean.Spheroid.Nonburst.ISI, concentration at 50% maximal activity
  AC50: 1000 nM
[1]; Homo sapiens, read-out: ac50 Mean.Spheroid.Spikes.per.Burst, concentration at 50% maximal activity
  AC50: 3000 nM
[1]; Homo sapiens, read-out: ac50 Mean.Spheroid.Spikes.per.Burst.per.Electrode, concentration at 50% maximal activity
  AC50: 1700 nM
[1]; Homo sapiens, read-out: ac50 Spheroid.Burst.Frequency, concentration at 50% maximal activity
  AC50: 4200 nM
[1]; Homo sapiens, read-out: ac50 Spheroid.Spike.Amplitude.90th.Percentile, concentration at 50% maximal activity
  AC50: 15000 nM
[1]; metrics active out of the total number of metrics screened
  Percent active: 90%
[1]; read-out: ac50 Mean.Spheroid.Burst.Duration, concentration at 50% maximal activity, listed as L-Domoic acid
  AC50: 3580 nM
[1]; read-out: ac50 Mean.Spheroid.Burst.ISI, concentration at 50% maximal activity, listed as L-Domoic acid
  AC50: 4360 nM
[1]; read-out: ac50 Mean.Spheroid.Burst.Peak.Firing.Rate, concentration at 50% maximal activity, listed as L-Domoic acid
  AC50: 3100 nM
[1]; read-out: ac50 Mean.Spheroid.Firing.Rate, concentration at 50% maximal activity, listed as L-Domoic acid
  AC50: 5410 nM
[1]; read-out: ac50 Mean.Spheroid.Nonburst.ISI, concentration at 50% maximal activity, listed as L-Domoic acid
  AC50: 1020 nM
[1]; read-out: ac50 Mean.Spheroid.Spikes.per.Burst.per.Electrode, concentration at 50% maximal activity, listed as L-Domoic acid
  AC50: 1710 nM
[1]; read-out: ac50 Mean.Spheroid.Spikes.per.Burst, concentration at 50% maximal activity, listed as L-Domoic acid
  AC50: 2980 nM
[1]; read-out: ac50 Spheroid.Burst.Frequency, concentration at 50% maximal activity, listed as L-Domoic acid
  AC50: 4170 nM
[1]; [5]
  BMD Mean.Spheroid.Burst.Duration: 2 µM
  BMD Mean.Spheroid.Burst.Peak.Firing.Rate: 2 µM
  BMD Mean.Spheroid.Firing.Rate: 6.6 µM
  BMD Mean.Spheroid.IBI: 1.9 µM
  BMD Mean.Spheroid.Spikes.per.Burst: 1.3 µM
  BMD Mean.Spheroid.Spikes.per.Burst.per.Electrode: 1.3 µM
  BMD Spheroid.Burst.Frequency: 4.4 µM
  BMD Spheroid.Spike.Amplitude.90th.Percentile: 14 µM
[1]; [6]
  ACC Mean.Spheroid.Burst.Duration: 1.8 µM
  ACC Mean.Spheroid.Burst.ISI: 1.8 µM
  ACC Mean.Spheroid.Burst.Peak.Firing.Rate: 1.8 µM
  ACC Mean.Spheroid.Firing.Rate: 9.9 µM
  ACC Mean.Spheroid.IBI: 3.1 µM
  ACC Mean.Spheroid.Nonburst.ISI: 1 µM
  ACC Mean.Spheroid.Spikes.per.Burst: 2.8 µM
  ACC Mean.Spheroid.Spikes.per.Burst.per.Electrode: 1.5 µM
  ACC Spheroid.Burst.Frequency: 3.8 µM
  ACC Spheroid.Spike.Amplitude.90th.Percentile: 18 µM
2D rat cortical cultures [2]; aenm active_electrodes_number, read-out: ac50 CCTE_Shafer_MEA_dev_active_electrodes_number
  AC50: 970 nM
2D rat cortical cultures [2]; aenm burst_duration_mean, read-out: ac50 CCTE_Shafer_MEA_dev_burst_duration_mean
  AC50: 992 nM
2D rat cortical cultures [2]; aenm burst_rate, read-out: ac50 CCTE_Shafer_MEA_dev_burst_rate
  AC50: 131 nM
2D rat cortical cultures [2]; aenm bursting_electrodes_number, read-out: ac50 CCTE_Shafer_MEA_dev_bursting_electrodes_number
  AC50: 1280 nM
2D rat cortical cultures [2]; aenm correlation_coefficient_mean, read-out: ac50 CCTE_Shafer_MEA_dev_correlation_coefficient_mean
  AC50: 1560 nM
2D rat cortical cultures [2]; aenm firing_rate_mean, read-out: ac50 CCTE_Shafer_MEA_dev_firing_rate_mean
  AC50: 68 nM
2D rat cortical cultures [2]; aenm inter_network_spike_interval_mean, read-out: ac50 CCTE_Shafer_MEA_dev_inter_network_spike_interval_mean
  AC50: 160 nM
2D rat cortical cultures [2]; aenm interburst_interval_mean, read-out: ac50 CCTE_Shafer_MEA_dev_interburst_interval_mean
  AC50: 32 nM
2D rat cortical cultures [2]; aenm mutual_information_norm, read-out: ac50 CCTE_Shafer_MEA_dev_mutual_information_norm
  AC50: 51 nM
2D rat cortical cultures [2]; aenm network_spike_duration_std, read-out: ac50 CCTE_Shafer_MEA_dev_network_spike_duration_std
  AC50: 259 nM
2D rat cortical cultures [2]; aenm network_spike_number, read-out: ac50 CCTE_Shafer_MEA_dev_network_spike_number
  AC50: 22 nM
2D rat cortical cultures [2]; aenm network_spike_peak, read-out: ac50 CCTE_Shafer_MEA_dev_network_spike_peak
  AC50: 1830 nM
2D rat cortical cultures [2]; aenm per_burst_interspike_interval, read-out: ac50 CCTE_Shafer_MEA_dev_per_burst_interspike_interval
  AC50: 1330 nM
2D rat cortical cultures [2]; aenm per_burst_spike_percent, read-out: ac50 CCTE_Shafer_MEA_dev_per_burst_spike_percent
  AC50: 2060 nM
2D rat cortical cultures [2]; aenm per_network_spike_spike_number_mean, read-out: ac50 CCTE_Shafer_MEA_dev_per_network_spike_spike_number_mean
  AC50: 1050 nM
2D rat cortical cultures [2]; aenm per_network_spike_spike_percent, read-out: ac50 CCTE_Shafer_MEA_dev_per_network_spike_spike_percent
  AC50: 2340 nM
2D rat cortical cultures [2]; aenm spike_duration_mean, read-out: ac50 CCTE_Shafer_MEA_dev_spike_duration_mean
  AC50: 1120 nM
2D rat cortical cultures [2]; rNFA mc5 hit call, aenm active_electrodes_number
  hitc CCTE_Shafer_MEA_dev_active_electrodes_number: 1
2D rat cortical cultures [2]; rNFA mc5 hit call, aenm burst_duration_mean
  hitc CCTE_Shafer_MEA_dev_burst_duration_mean: 1
2D rat cortical cultures [2]; rNFA mc5 hit call, aenm burst_rate
  hitc CCTE_Shafer_MEA_dev_burst_rate: 1
2D rat cortical cultures [2]; rNFA mc5 hit call, aenm bursting_electrodes_number
  hitc CCTE_Shafer_MEA_dev_bursting_electrodes_number: 1
2D rat cortical cultures [2]; rNFA mc5 hit call, aenm correlation_coefficient_mean
  hitc CCTE_Shafer_MEA_dev_correlation_coefficient_mean: 1
2D rat cortical cultures [2]; rNFA mc5 hit call, aenm firing_rate_mean
  hitc CCTE_Shafer_MEA_dev_firing_rate_mean: 1
2D rat cortical cultures [2]; rNFA mc5 hit call, aenm inter_network_spike_interval_mean
  hitc CCTE_Shafer_MEA_dev_inter_network_spike_interval_mean: 1
2D rat cortical cultures [2]; rNFA mc5 hit call, aenm interburst_interval_mean
  hitc CCTE_Shafer_MEA_dev_interburst_interval_mean: 1
2D rat cortical cultures [2]; rNFA mc5 hit call, aenm mutual_information_norm
  hitc CCTE_Shafer_MEA_dev_mutual_information_norm: 1
2D rat cortical cultures [2]; rNFA mc5 hit call, aenm network_spike_duration_std
  hitc CCTE_Shafer_MEA_dev_network_spike_duration_std: 1
2D rat cortical cultures [2]; rNFA mc5 hit call, aenm network_spike_number
  hitc CCTE_Shafer_MEA_dev_network_spike_number: 1
2D rat cortical cultures [2]; rNFA mc5 hit call, aenm network_spike_peak
  hitc CCTE_Shafer_MEA_dev_network_spike_peak: 1
2D rat cortical cultures [2]; rNFA mc5 hit call, aenm per_burst_interspike_interval
  hitc CCTE_Shafer_MEA_dev_per_burst_interspike_interval: 1
2D rat cortical cultures [2]; rNFA mc5 hit call, aenm per_burst_spike_percent
  hitc CCTE_Shafer_MEA_dev_per_burst_spike_percent: 1
2D rat cortical cultures [2]; rNFA mc5 hit call, aenm per_network_spike_spike_number_mean
  hitc CCTE_Shafer_MEA_dev_per_network_spike_spike_number_mean: 1
2D rat cortical cultures [2]; rNFA mc5 hit call, aenm per_network_spike_spike_percent
  hitc CCTE_Shafer_MEA_dev_per_network_spike_spike_percent: 1
2D rat cortical cultures [2]; rNFA mc5 hit call, aenm spike_duration_mean
  hitc CCTE_Shafer_MEA_dev_spike_duration_mean: 1
2D rat cortical cultures [2]; ref Brown et al. [2016], Carstens et al. [2022], Frank et al. [2017b], Shafer et al. [2019], ToxCast invitrodb (v4.2)
  Bioactivity in the rNFA (in words): alter multiple parameters of network formation
2D rat cortical cultures [3]; rNFA mc5 hit call
  hitc CCTE_Shafer_MEA_dev_LDH: 1
2D rat cortical cultures [3]; read-out: ac50 CCTE_Shafer_MEA_dev_LDH, rNFA mc5
  AC50: 6750 nM
